Measurements reported in patent publication US20100331297A1, “MODULATION OF PROTEIN TRAFFICKING” (FOLDRX PHARMACEUTICALS, INC., priority 2007, published 2010).

Target: ΔF508 CFTR (Homo sapiens, UniProt P13569, DEL508-508)
Assay: Corrector activity, YFP halide (iodide) quenching assay in FRT cells expressing ΔF508 CFTR
Type: cell-based
Parameters: expressed in transfected cells; host or cells: Fischer rat thyroid (FRT) cells
Settings: FRT cells ΔF508 CFTR/YFP, 24 hours with compound at 37° C., forskolin and genistein; read-out: Corrector EC50
Procedure: Fisher rat thyroid (FRT) cells stably expressing ΔF508 CFTR and a halide-sensitive variant of yellow fluorescent protein (YFP) were seeded into microtiter plates and allowed to grow for 24 hours at 37° C. and 5% CO2. See Pedemonte et al., J. Clin. Invest. […] Compounds in dimethylsulfoxide (DMSO) solution were pre-diluted into cell culture medium, the medium was removed from cells, and then fresh medium containing the compounds was applied. The cells were incubated for a further 24 hours at 37° C. and 5% CO2.
Activity of CFTR was assayed by removing the medium, washing the cell monolayer with phosphate-buffered saline solution (PBS), and then applying PBS containing forskolin and genistein. After 30 min incubation at 37° C., the plates were placed in a fluorescence plate reader equipped with a reagent injector.
Corrector activity was calculated as follows. Normalized endpoint fluorescence was calculated by dividing the endpoint fluorescence after iodide injection by the initial fluorescence reading and multiplication by 100. Corrector EC50 values were calculated from the activity vs. concentration data using a 4-parameter log fit. The bottom of the curve was constrained to zero activity (DMSO control) while the slope, EC50, and top of the curve were fitted to the data. The EC50 was determined as the concentration that corresponds to the inflection point of the fitted curve.

Sequence of ΔF508 CFTR (P13569 with tags, fused parts or gaps DEL508-508): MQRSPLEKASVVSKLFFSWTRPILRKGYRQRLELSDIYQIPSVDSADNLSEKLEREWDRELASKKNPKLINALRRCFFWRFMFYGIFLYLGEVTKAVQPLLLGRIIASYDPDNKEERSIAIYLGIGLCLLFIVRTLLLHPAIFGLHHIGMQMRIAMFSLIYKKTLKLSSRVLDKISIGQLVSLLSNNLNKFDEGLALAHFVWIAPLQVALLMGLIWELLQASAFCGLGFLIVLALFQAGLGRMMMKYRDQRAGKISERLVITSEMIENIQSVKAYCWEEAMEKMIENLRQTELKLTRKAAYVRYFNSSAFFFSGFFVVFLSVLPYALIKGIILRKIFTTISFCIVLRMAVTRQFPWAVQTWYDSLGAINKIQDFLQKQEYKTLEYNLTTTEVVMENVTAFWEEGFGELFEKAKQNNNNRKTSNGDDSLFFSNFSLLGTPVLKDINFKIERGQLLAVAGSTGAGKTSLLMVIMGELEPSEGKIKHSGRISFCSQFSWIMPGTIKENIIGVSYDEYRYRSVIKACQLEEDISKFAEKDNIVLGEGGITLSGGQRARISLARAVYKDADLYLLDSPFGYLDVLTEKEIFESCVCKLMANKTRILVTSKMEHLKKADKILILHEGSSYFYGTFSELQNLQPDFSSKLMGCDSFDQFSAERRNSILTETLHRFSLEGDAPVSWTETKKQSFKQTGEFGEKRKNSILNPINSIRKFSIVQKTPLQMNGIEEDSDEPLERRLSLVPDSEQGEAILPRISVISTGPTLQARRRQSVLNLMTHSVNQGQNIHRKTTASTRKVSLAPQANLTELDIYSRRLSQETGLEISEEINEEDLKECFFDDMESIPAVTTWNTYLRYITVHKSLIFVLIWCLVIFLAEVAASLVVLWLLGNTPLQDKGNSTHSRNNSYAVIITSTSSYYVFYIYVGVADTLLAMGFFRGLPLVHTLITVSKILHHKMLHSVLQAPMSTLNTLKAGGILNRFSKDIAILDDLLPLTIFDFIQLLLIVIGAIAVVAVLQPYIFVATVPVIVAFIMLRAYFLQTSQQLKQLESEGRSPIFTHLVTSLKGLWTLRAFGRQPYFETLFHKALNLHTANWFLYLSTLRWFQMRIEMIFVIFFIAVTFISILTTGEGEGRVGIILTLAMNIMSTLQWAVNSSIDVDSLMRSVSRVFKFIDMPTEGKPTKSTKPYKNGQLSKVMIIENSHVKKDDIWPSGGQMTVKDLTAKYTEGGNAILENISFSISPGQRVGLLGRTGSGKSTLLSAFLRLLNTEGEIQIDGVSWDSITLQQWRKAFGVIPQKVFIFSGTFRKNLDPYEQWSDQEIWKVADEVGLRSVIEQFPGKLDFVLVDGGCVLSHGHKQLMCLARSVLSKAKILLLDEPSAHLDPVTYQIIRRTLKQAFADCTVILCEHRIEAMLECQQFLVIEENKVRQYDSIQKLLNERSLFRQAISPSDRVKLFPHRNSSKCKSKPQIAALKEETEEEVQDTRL

Row | SMILES | EC50 [µM]
1 | Nc1ncnc2c1c(Nc1ccccc1)nn2C1CCC1 [Compound No. 253, 1-Cyclobutyl-N^3-phenyl-1H-pyrazolo[3,4-d]pyrimidine-3,4-diamine] | > 15
2 | CC(C)(C)n1nc(Oc2nccc3ccccc23)c2c(N)ncnc21 [compound 370, 1-tert-Butyl-3-(isoquinolin-1-yloxy)-1H-pyrazolo[3,4-d]pyrimidin-4-ylamine] | > 15
3 | Nc1ncnc2c1c(Oc1cccc(Cl)c1)nn2C1CCOC1 (stereo not drawn) [compound 358] | > 15
4 | CCNC(=O)N1CC(n2nc([S+]([O-])c3ccccc3)c3c(N)ncnc32)C1 (stereo not drawn) [compound 419] | > 15
5 | CC(C)C(=O)Nc1ncnc2c1c(Br)nn2C(C)(C)C [compound 423] | < 2
6 | CC(C)(C)OC(=O)N1CC(n2nc([S+]([O-])c3ccccc3)c3c(N)ncnc32)C1 (stereo not drawn) [compound 385] | > 15
7 | CC(C)C(=O)Nc1ncnc2c1c(-c1ccc(Cl)cc1)cn2C(C)(C)C [compound 337] | < 2
8 | CC(C)(C)n1cc(-c2ccc(Cl)cc2)c2c(NC(=O)C3CCOC3)ncnc21 (stereo not drawn) [compound 374] | < 2
9 | CCn1nc(Sc2cccc(O)c2)c2c(N)ncnc21 [compound 250] | > 15
10 | CCC(=O)Nc1ncnc2c1c(-c1cccc(Cl)c1)cn2C(C)(C)C [compound 368] | 5 to 10
11 | CCn1nc([S+]([O-])c2cccc(Br)c2)c2c(N)ncnc21 (stereo not drawn) [compound 392] | > 15
12 | CCn1nc([S+]([O-])c2cccc(C(F)(F)F)c2)c2c(N)ncnc21 (stereo not drawn) [compound 340] | > 15
13 | Nc1ncnc2c1c(Oc1ccccc1)nn2C1CCNCC1 [compound 417] | > 15
14 | CNC(=S)Nc1ncnc2c1c(-c1ccc(Cl)cc1)nn2C(C)(C)C [Compound No. 397, 1-[1-tert-Butyl-3-(4-chloro-phenyl)-1H-pyrazolo[3,4-d]pyrimidin-4-yl]-3-methyl-thiourea] | > 15
15 | CCn1nc(Sc2ccc(F)cc2F)c2c(N)ncnc21 [compound 258] | > 15
16 | COC(=O)n1nc(-c2ccc(Cl)cc2)c2c(N)ncnc21 [compound 186, 4-Amino-3-(4-chloro-phenyl)-pyrazolo[3,4-d]pyrimidine-1-carboxylic acid methyl ester] | > 15
17 | CCn1nc(Sc2cccc(F)c2)c2c(N)ncnc21 [compound 219] | 2 to 5
18 | CCNC(=O)n1nc(-c2ccc(Cl)cc2)c2c(N)ncnc21 [Compound No. 213, 4-Amino-3-(4-chloro-phenyl)-pyrazolo[3,4-d]pyrimidine-1-carboxylic acid ethylamide] | 5 to 10
19 | CS(=O)(=O)n1nc(-c2ccc(Cl)cc2)c2c(N)ncnc21 [compound 203, 3-(4-Chloro-phenyl)-1-methanesulfonyl-1H-pyrazolo[3,4-d]pyrimidin-4-ylamine] | > 15
20 | CCn1c(C)c(-c2ccc(Cl)cc2)c2c(NC(=O)C(C)C)ncnc21 [compound 364] | < 2
21 | Nc1ncnc2c1c(Oc1cccc(Cl)c1)nn2C1CNC1 [compound 414] | > 15
22 | Nc1ncnc2c1c(-c1ccc(Cl)cc1)nn2C(=O)Nc1ccccc1 [compound 214] | > 15

Row | SMILES | EC50 [µM]
23 | Nc1ncnc2c1c(Sc1cccc(Cl)c1)nn2C1CNC1 [compound 415] | > 15
24 | CCC(C)Cn1nc(-c2ccc(Cl)cc2)c2c(N)ncnc21 (stereo not drawn) [compound 101] | > 15
25 | Nc1ncnc2c1c(-c1ccc(Cl)cc1)nn2C(=O)C1CC1 [compound 182] | 5 to 10
26 | Nc1ncnc2c1c(Oc1cccc(Cl)c1)nn2C1CCCC1 [Compound No. 221, 3-(3-Chloro-phenoxy)-1-cyclopentyl-1H-pyrazolo[3,4-d]pyrimidin-4-ylamine] | > 15
27 | CCn1nc(Nc2ccccc2)c2c(N)ncnc21 [Compound No. 223, 1-Ethyl-N^3-phenyl-1H-pyrazolo[3,4-d]pyrimidine-3,4-diamine] | > 15
28 | CC(C)(C)n1cc(-c2ccc(Cl)cc2)c2c(NC(=O)C3CCCO3)ncnc21 (stereo not drawn) [compound 373] | 5 to 10
29 | CC(C)(C)C(=O)Nc1ncnc2c1c(Oc1cccc(Cl)c1)nn2C(C)(C)C [compound 377] | > 15
30 | CCNC(=O)N1CC(n2nc(Oc3cccc(Cl)c3)c3c(N)ncnc32)C1 [compound 381] | > 15
31 | CN1CC(n2nc(Sc3cccc(Cl)c3)c3c(N)ncnc32)C1 [compound 382] | > 15
32 | COCCn1nc(-c2ccc(Cl)cc2)c2c(N)ncnc21 [compound 171] | > 15
33 | CC1CCC(n2nc(-c3ccc(Cl)cc3)c3c(N)ncnc32)CC1 (stereo not drawn) [compound 361] | > 15
34 | CC(C)(C)n1nc(-c2ccc(Cl)cc2)c2c(NC(=O)N3CCCC3)ncnc21 [compound 398] | > 15
35 | CC(C)(C)n1cc(-c2ccc(Cl)cc2)c2c(NC(=O)N3CCCC3)ncnc21 [compound 399] | > 15
36 | CC(C)(C)n1nc(-c2ccc(Cl)cc2)c2c(NC(=O)C3CCOC3)ncnc21 (stereo not drawn) [compound 393] | 5 to 10
37 | CC(C)(C)n1nc(Br)c2c(NC(=O)c3ccccc3)ncnc21 [compound 421] | 2 to 5
38 | CN(C)/C=N/c1ncnc2c1c(-c1ccc(Cl)cc1)nn2C(C)(C)C [Compound No. 232, N′-[1-tert-Butyl-3-(4-chloro-phenyl)-1H-pyrazolo[3,4-d]pyrimidin-4-yl]-N,N-dimethyl-formamidine] | > 15
39 | CC(C)(C)n1nc(-c2nc3ccccc3o2)c2c(N)ncnc21 [Compound No. 355, 3-Benzooxazol-2-yl-1-tert-butyl-1H-pyrazolo[3,4-d]pyrimidin-4-ylamine] | 2 to 5
40 | CC(C)(C)n1cc(-c2cccc(Cl)c2)c2c(NC(=O)C3CCCC3)ncnc21 [compound 367] | 5 to 10
41 | CCC(=O)Nc1ncnc2c1c(-c1ccc(Cl)cc1)cn2C(C)(C)C [compound 371] | < 2
42 | CC(C)(C)n1ncc2c(NC(=O)c3ccccc3)ncnc21 [Compound No. 388, N-(1-tert-Butyl-1H-pyrazolo[3,4-d]pyrimidin-4-yl)-benzamide] | > 15
43 | CC(=O)N(C(C)=O)c1ncnc2c1c(-c1ccc(F)cc1)nn2C(C)(C)C [compound 117, N-Acetyl-N-[1-tert-butyl-3-(4-fluoro-phenyl)-1H-pyrazolo[3,4-d]pyrimidin-4-yl]-acetamide] | > 15
44 | CC(=O)N(C)c1ncnc2c1c(-c1ccc(Cl)cc1)nn2C(C)(C)C [Compound No. 259, N-[1-tert-Butyl-3-(4-chloro-phenyl)-1H-pyrazolo[3,4-d]pyrimidin-4-yl]-N-methyl-acetamide] | > 15

Row | SMILES | EC50 [µM]
45 | CC(C)(C)n1nc(-c2ccc(Cl)cc2)c2c(NC(=O)C3CC3)ncnc21 [compound 396] | 5 to 10
46 | CC(=O)N1CC(n2nc([S+]([O-])c3ccccc3)c3c(N)ncnc32)C1 (stereo not drawn) [compound 404] | > 15
47 | CN1CCC(C(=O)Nc2ncnc3c2c(-c2ccc(Cl)cc2)cn3C(C)(C)C)C1 (stereo not drawn) [compound 375] | < 2
48 | CCn1nc([S+]([O-])c2ccccc2C)c2c(N)ncnc21 (stereo not drawn) [compound 222] | > 15
49 | CC(C)(C)OC(=O)N1CC(n2nc(Oc3cccc(Cl)c3)c3c(N)ncnc32)C1 [compound 357] | > 15
50 | CCn1cc(-c2ccc(Cl)cc2)c2c(N(C(C)=O)C(C)=O)ncnc21 [compound 211, N-Acetyl-N-[5-(4-chloro-phenyl)-7-ethyl-7H-pyrrolo[2,3-d]pyrimidin-4-yl]-acetamide] | 2 to 5
51 | CCn1nc([S+]([O-])c2ccc(F)cc2)c2c(N)ncnc21 (stereo not drawn) [compound 254] | > 15
52 | CCNC(=O)N1CC(n2nc(Sc3ccccc3)c3c(N)ncnc32)C1 [compound 348] | > 15
53 | CC(C)(C)n1nc(Oc2cccc(Cl)c2)c2c(NC(=O)N3CCCC3)ncnc21 [compound 400] | > 15
54 | CC(C)(C)C(=O)Nc1ncnc2c1c(Br)nn2C(C)(C)C [compound 422] | 2 to 5
55 | CCOC(=O)N1CC(n2nc([S+]([O-])c3ccccc3)c3c(N)ncnc32)C1 (stereo not drawn) [compound 405] | > 15
56 | CC(=O)N1CCC(n2nc(Oc3ccccc3)c3c(N)ncnc32)CC1 [compound 420] | > 15
57 | CC(C)(C)n1nc(Oc2cccc(Cl)c2)c2c(NC(=O)C3CCCC3)ncnc21 [compound 338] | 5 to 10
58 | CC(C)N1CC(n2nc(Sc3ccccc3)c3c(N)ncnc32)C1 [compound 384] | > 15
59 | CC(C)(C)n1cc(-c2ccc(Cl)cc2)c2c(NC(=O)C3CCCO3)ncnc21 (stereo not drawn) [compound 376] | 2 to 5
60 | CN1CC(n2nc(Cc3cccc4ccccc34)c3c(N)ncnc32)C1 [compound 387] | > 15
61 | CC(C)(C)OC(=O)N1CCC(n2nc(Oc3ccccc3)c3c(N)ncnc32)CC1 [compound 362] | > 15
62 | CC(C)(C)n1cc(-c2cccc(Cl)c2)c2c(N)ncnc21 [compound 354] | > 15
63 | CC(=O)n1nc(-c2ccc(Cl)cc2)c2c(N)ncnc21 [compound 181, 1-[4-Amino-3-(4-chloro-phenyl)-pyrazolo[3,4-d]pyrimidin-1-yl]-ethanone] | > 15
64 | CCOC(=O)N1CCC(n2nc(Oc3ccccc3)c3c(N)ncnc32)CC1 [compound 386] | > 15
65 | CC(C)(C)n1nc(-c2ccc3ccccc3c2)c2c(N)ncnc21 [compound 129] | 5 to 10
66 | CC(C)N1CC(n2nc(Sc3cccc(Cl)c3)c3c(N)ncnc32)C1 [compound 360] | > 15
